Test results from patent US8324237B2, “Methods for the treatment and prevention of inflammatory diseases” (priority 2005, dated 2012).

Key:
[1] = test system: HL-60 (human promyelocytic leukemia) cells; test: TNFα-induced HL-60 cell proliferation; type: cell-based; details: 25 ng TNFα/ml, 72 hours
Description: FIG. 6. Inhibition of TNFα-induced HL-60 cell proliferation by SK inhibitors. HL-60 cells were serum-starved for 18 hours and then left untreated (▴) or treated with 25 ng of TNFα/ml (▾) in the presence of the indicated concentrations of Compound I, II or V. After 72 hours, the number of cells in each treatment group was quantified.
As discussed above, aberrant activation of leukocytes is a central feature of many inflammatory diseases. Because of the roles of S1P in promoting leukocyte proliferation, we examined the effects of several SK inhibitors on the proliferation of HL-60 (human promyelocytic leukemia) cells. […] Compound I was particularly effective, completely blocking the effects of TNFα at concentrations of 0.2 μM or greater.

[2] = test system: endogenous SK in human synovial cells from a patient with RA (HFLS-RA); test: Cell-based S1P formation assay, HFLS-RA cells; details: read-out: drug concentration that decreases S1P formation by 50%
Description: (§1) A cell-based assay in which the phosphorylation of exogenously added [^3H]sphingosine to [^3H]S1P by endogenous SK can be quantified (French et al., Cancer Res 63: 5962 (2003)) was used to evaluate the effects of test compounds on the activity of SK in intact cells. In this assay, cells are incubated with [^3H]sphingosine for an appropriate period of time, and then [^3H]sphingosine and [^3H]S1P (formed by endogenous SK activity) are separated by extraction and levels of both species are determined by scintillation counting. We have used a number of cell lines in this assay to confirm that the SK inhibitors are active in multiple intact cell systems. For example, human umbilical vein endothelial cells (HUVECs) are commonly used as a model of human vasculature. Additionally, rat IEC6 cells are commonly used as a model of intestinal epithelial cells.
(§2) Specifically, HUVECs, human chondrocytes (HC), and human synovial cells from a patient with RA (HFLS-RA) were examined.

[3] = test system: endogenous SK in human chondrocytes (HC); test: Cell-based S1P formation assay, human chondrocytes; details: HCs; read-out: drug concentration that decreases S1P formation by 50%
Description: as §1, §2

[4] = test system: endogenous SK in human umbilical vein endothelial cells (HUVECs); test: Cell-based [3H]sphingosine to [3H]S1P assay of endogenous SK activity, HUVECs; details: for cellular levels of [3H]S1P: 24 hours treatment, FIG. 3
Description: FIG. 2. […] Values represent the mean±sd SK activity in triplicate samples in a typical experiment. FIG. 3. […] HUVECs were treated with the indicated concentrations of Compound I, II or V for 24 hours. SK activity was measured by adding [^3H]sphingosine and determining its conversion to [3H]S1P. Values represent the mean±SD of duplicate samples. A cell-based assay in which the phosphorylation of exogenously added [^3H]sphingosine to [^3H]S1P by endogenous SK can be quantified (French et al., Cancer Res 63: 5962 (2003)) was used to evaluate the effects of test compounds on the activity of SK in intact cells. In this assay, cells are incubated with [^3H]sphingosine for an appropriate period of time, and then [^3H]sphingosine and [^3H]S1P (formed by endogenous SK activity) are separated by extraction and levels of both species are determined by scintillation counting. […] For example, human umbilical vein endothelial cells (HUVECs) are commonly used as a model of human vasculature. Additionally, rat IEC6 cells are commonly used as a model of intestinal epithelial cells. […] Specifically, HUVECs, human chondrocytes (HC), and human synovial cells from a patient with RA (HFLS-RA) were examined.

[5] = test system: male C57BL/6 mice, DSS-colitis; test: Acute DSS-colitis model of IBD; type: in vivo; details: 2% DSS, 50 mg/kg oral daily; for Disease Activity Index (DAI): Days 4-6
[6] = test system: mice, chronic DSS-colitis; test: Chronic (35-day) DSS-colitis model of IBD; type: in vivo; details: for colon length: Day 35, 50 mg/kg oral daily for 7 days, DSS alone 4.9±0.2, water 7.8±0.3; for serum level of IL-6: at time of sacrifice; for increase in DAI: third DSS exposure, 50 mg/kg oral daily Day 28-35, P<0.001 on Day 35; for colonic levels of pro-inflammatory cytokines TNFα, IL-1β, IFN-γ and IL-6: treated during the final DSS cycle, 50 mg/kg oral
[7] = test system: NFκB; test: TNFα-induced NFκB luciferase reporter assay in fibroblasts; type: cell-based; details: TNFα for 6 hours, FIG. 4
Description: FIG. 4. Inhibition of TNFα-induced activation of NFκB by ABC294640. Fibroblasts transfected with a TNFα-responsive promoter linked to luciferase were treated with the indicated concentrations of ABC294640 and then treated with TNFα for 6 hours. The amount of luciferase expressed by the cells was then measured by luminescence. Values represent the mean±sd luciferase activity in triplicate samples in a typical experiment.

[8] = test system: female DBA/1 mice, Collagen-Induced Arthritis; test: Collagen-Induced Arthritis (CIA) model; type: in vivo; details: Day 12; ABC294640 100 mg/kg, ABC747080 50 mg/kg oral
[9] = physchem; details: aqueous with cosolvent or surfactant or cyclodextrin
[10] = test system: Cox-2 activity (PGE2 production) in IEC6 rat intestinal epithelial cells; test: TNFα-induced Cox-2 activity (PGE2 ELISA), IEC6 cells; type: cell-based; details: 10 μg/mL compound, 100 ng TNFα/mL, 18 hours
[11] = test system: Cox-2 activity (PGE2 production) in human endothelial cells; test: TNFα-induced Cox-2 activity (PGE2 ELISA), human endothelial cells; type: cell-based; details: 10 μg/mL compound, 100 ng TNFα/mL, 18 hours
[12] = test system: endogenous SK in rat IEC6 cells; test: Cell-based [3H]sphingosine to [3H]S1P assay of endogenous SK activity, rat IEC6 cells; details: FIG. 2A
Description: as §1, with “FIG. 2. […] Values represent the mean±sd SK activity in triplicate samples in a typical experiment. A cell-based” for “A cell-based”, “scintillation counting. […] For example,” for “scintillation counting. We have used a number of cell lines in this assay to confirm that the SK inhibitors are active in multiple intact cell systems. For example,”

[13] = test system: human sphingosine kinase; test: Screening assay for inhibitors of SK; type: biochemical; details: library screen
Excerpt: An assay for screening for inhibitors of SK has been established (French et al., Cancer Res 63: 5962 (2003)). […] Representative active compounds from four chemotypes of SK inhibitors, designated herein as Compounds I-IV, are shown in FIG. 1.

[14] = test system: male Lewis rats, adjuvant-induced arthritis; test: Adjuvant-induced arthritis model; type: in vivo; details: 5, 35, 100 mg/kg oral daily, 10 days
Description: FIG. 18. Effects of ABC294640 on disease progression in the adjuvant-induced arthritis model in rats. Male Lewis rats were injected subcutaneously with Mycobacterium butyricum, and symptoms of immune reactivity were present after 2 weeks. Responsive rats were randomized into treatment groups (n=8 per group), and received oral daily doses of: solvent alone (0.375% Tween-80); 100 mg/kg ABC294640; 35 mg/kg ABC294640; or 5 mg/kg ABC294640, or intraperitoneal injections of indomethacin (5 mg/kg) every other day. The severity of disease in each animal was quantified by measurement of the hind paw thickness. Panel A. Time course of hind paw arthritic response. Panel B. Final day (Day 10) hind paw thickness measurements. Panel C. Change in paw thickness of respective group versus non-arthritic rats (naive) at Day 10. *, p<0.05; ***, p<0.001 versus solvent alone group.
Adjuvant-induced arthritis is another widely used assay that recapitulates many features of human rheumatoid arthritis, and so is useful in the evaluation of new drug candidates. Age- and weight-matched male Lewis rats (150-170 g) were injected subcutaneously in the tail with 1 mg of Mycobacterium butyricum (Difco, killed dried) suspended in 0.1 ml of light mineral oil. Symptoms of immune reactivity were present after 2 weeks. […] The severity of disease in each animal was quantified by measurement of the hind paw thickness. […]

[15] = test system: female Swiss-Webster mice; details: mouse, in vivo
Description: The compounds are soluble to at least 15 mg/ml in 50% dimethylsulfoxide: 50% phosphate-buffered saline (DMSO:PBS) for intraperitoneal (IP) administration or Polyethylene glycol-400 (PEG400) for oral dosing.

[16] = test system: ICAM-1 and VCAM-1 in human endothelial cells; test: TNFα-induced adhesion molecule expression (Western analysis); type: cell-based; details: TNFα 100 ng/mL, 6 hours
Description: Like endothelial cells in the body, HUVECs will proliferate in response to several growth factors, and will respond to inflammatory cytokines such as TNFα and IL-1β. Western analyses were conducted with human endothelial cells to evaluate the effects of the SK inhibitors on signaling proteins known to be regulated by TNFα. […] Cell lysates from treated cells were assayed for the adhesion molecules ICAM-1 and VCAM-1. TNFα caused marked increases in the expression levels of adhesion proteins involved in leukocyte recruitment, including ICAM-1 and VCAM-1.

For `Oc1ccc(Nc2nc(-c3ccc(Cl)cc3)cs2)cc1` [Compound II], the “HL-60 cell proliferation of TNFα-stimulated cells” value [1] was “dose-dependent reductions in HL-60 cell proliferation”, the IC50 [2] was 0.19 µM and the IC50 [3] was 0.36 µM. For the same compound, the “cellular levels of [3H]S1P” value ([4]; HUVECs) was “dose-dependent reductions in the cellular levels of S1P” and the IC50 ([4]; HUVECs, read-out: drug concentration that decreases S1P formation by 50%) was 0.2 µM.

For `O=C(O)c1cc(/N=N/c2ccc(O)c(C(=O)O)c2)ccc1O` [Dipentum, reference compound], the “colon Histology Score” value ([5]; Day 6) was “consistently lower than the DSS-alone animals”, the colon length ([5]; Day 6) was “colons of intermediate length” and the “elevations of colonic pro-inflammatory proteins IFN-γ, IL-1β, IL-6 and TNFα” value ([5]; Day 6) was “attenuated”. The “increase in colonic myeloperoxidase (MPO) activity” value ([5]; Day 6) was “markedly attenuated”, the “Disease Activity Index (DAI)” value [5] was “reduced the intensity of the IBD manifestations” and the colon length [6] was 6.1±0.2 cm. The “serum level of IL-6” value [6] was “reduced the serum level of IL-6”, the “increase in DAI” value [6] was “significantly suppressed the increase in DAI” and the “colonic levels of pro-inflammatory cytokines TNFα, IL-1β, IFN-γ and IL-6” value [6] was “cytokine profiles equivalent to the DSS-alone group”.

For `O=C1C(=Cc2ccc(O)c(O)c2)Oc2ccccc21` [V], the “HL-60 cell proliferation of TNFα-stimulated cells” value [1] was “dose-dependent reductions in HL-60 cell proliferation” and the “cellular levels of [3H]S1P” value ([4]; HUVECs) was “dose-dependent reductions in the cellular levels of S1P”.

For `O=C(NCc1ccncc1)C12CC3CC(C1)CC(c1ccc(Cl)cc1)(C3)C2` [ABC294640], the “activation of NFκB by TNFα (luciferase)” value [7] was “dose-dependently suppressed”, the “histologic damage of tibiotarsal joints” value [8] was “significantly reduced histologic damage” and the solubility [9] was ≥ 15 mg/mL. For the same compound, the “induction of Cox-2 activity by TNFα (PGE2 production)” value [10] was “strongly suppressed”, the “induction of Cox-2 activity by TNFα (PGE2 production)” value [11] was “strongly suppressed” and the “SK activity ([3H]S1P formation)” value [12] was “dose-dependent suppression of SK activity”. The “inhibition of SK” value [13] was “inhibit SK”, the “SK activity ([3H]S1P formation)” value ([4]; human endothelial cells, FIG. 2B) was “dose-dependent suppression of SK activity” and the colon length ([5]; Day 6) was “colons of intermediate length”. The “colonic S1P levels (LC-MS/MS)” value ([5]; Day 6) was “markedly lower levels of colonic S1P”, the “histological examination of colon sections” value ([5]; Day 6) was “no or mild crypt damage, no or low levels of inflammatory cell infiltration and no edema in the submucosa” and the “increase in colonic myeloperoxidase (MPO) activity” value ([5]; Day 6) was “markedly attenuated”. The “Disease Activity Index (DAI)” value [5] was “reduced the intensity of the IBD manifestations”, the “SK expression in the colon (immunohistochemistry)” value ([6]; DSS treated mice) was “clearly reduced” and the colon length [6] was 6.2±0.2 cm. The “serum level of IL-6” value [6] was “reduced the serum level of IL-6”, the “colonic S1P levels” value ([6]; oral 50 mg/kg daily, 7 days prior to sacrifice) was “significant reductions of S1P levels” and the “increase in DAI” value [6] was “significantly suppressed the increase in DAI”. The “colonic levels of pro-inflammatory cytokines TNFα, IL-1β, IFN-γ and IL-6” value [6] was “reduced levels of the pro-inflammatory cytokines”, the “arthritic response (paw thickness)” value [14] was “inhibited this arthritic response in a dose-dependent manner” and the “dose with no immediate or delayed toxicity” value ([15]; ip) was “at least 50 mg/kg”. For the same compound, the “dose without noticeable toxicity” value ([15]; po) was “at least 100 mg/kg”, the “TNFα induction of ICAM-1 and VCAM-1” value ([16]; 25 μM compound) was “completely abrogated” and the “TNFα-induced expression of ICAM-1 and VCAM-1” value [16] was “inhibited”.
